“And” between values parts separate entries of the source, which are not always exact repeats. Identical values can stand only once.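 Test compounds were applied to cells in 96-well plates for 48 hours at 5 doses. At the GI50, growth is halved. TGI: total growth inhibition.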
Experiments:
Test in all cases: NCI tumour cell line growth inhibition, 48 h
SK-OV-3 ovarian = test system: SK-OV-3 ovarian
SN12C renal = test system: SN12C renal
T-47D breast = test system: T-47D breast
HCT-116 colon = test system: HCT-116 colon
OVCAR-4 ovarian = test system: OVCAR-4 ovarian
A549 NSCLC = test system: A549 NSCLC
A498 renal = test system: A498 renal
LOX IMVI melanoma = test system: LOX IMVI melanoma
RPMI-8226 leukemia = test system: RPMI-8226 leukemia
NCI/ADR-RES ovarian = test system: NCI/ADR-RES ovarian

Row | SMILES | GI50 (SK-OV-3 ovarian) | TGI (SK-OV-3 ovarian) | GI50 (SN12C renal) | TGI (SN12C renal) | GI50 (T-47D breast) | TGI (T-47D breast) | GI50 (HCT-116 colon) | TGI (HCT-116 colon) | GI50 (OVCAR-4 ovarian) | TGI (OVCAR-4 ovarian) | GI50 (A549 NSCLC) | TGI (A549 NSCLC) | GI50 (A498 renal) | TGI (A498 renal) | GI50 (LOX IMVI melanoma) | TGI (LOX IMVI melanoma) | GI50 (RPMI-8226 leukemia) | TGI (RPMI-8226 leukemia) | GI50 (NCI/ADR-RES ovarian) | TGI (NCI/ADR-RES ovarian)
1 | C/C(=N/O)c1ccc2c(c1)/C(=N/O)c1ccccc1-2 | 35.7 µM | > 100 µM | 19.8 µM | 44.5 µM | 24 µM | 52.7 µM | 20.7 µM | 38.5 µM | 15.1 µM | 45.4 µM | 24 µM | 62.9 µM | 34.9 µM | > 100 µM | 16.3 µM | 33.3 µM | 22.5 µM | 48.8 µM | 21 µM | 48.6 µM
2 | NC1=NC(=O)/C(=C/c2ccc3ncccc3c2)S1 | > 25 µM | > 25 µM | > 25 µM | > 25 µM | > 15.6 µM | > 25 µM | > 13.8 µM | > 25 µM | > 25 µM | > 25 µM | > 25 µM | > 25 µM | > 17.3 µM | > 25 µM | > 25 µM | > 25 µM | > 25 µM | > 25 µM | > 25 µM | > 25 µM
3 | COc1ccc(-c2[nH]nc(N)c2-c2cc(OC)c3c(c2)OCO3)cc1 | 5.74 µM | > 100 µM | 5.01 µM | > 100 µM | 6.52 µM | > 100 µM | 2.71 µM | > 100 µM | 12.9 µM | > 100 µM | 4.73 µM | > 100 µM | 1.88 µM | 6.75 µM | 4.86 µM | > 100 µM | 3.8 µM | 52.3 µM | 2.33 µM | 8.48 µM
4 | COc1cccc(/C=C/c2ccnc3ccccc23)c1OC | – | > 10 µM | – | > 10 µM | – | > 10 µM | – | > 10 µM | – | > 10 µM | – | > 10 µM | – | > 10 µM | – | > 10 µM | – | > 10 µM | – | > 10 µM
5 | NC(=O)CC1(O)C=C(Br)C(=O)C(Br)=C1 | 17.9 µM | 32.3 µM | 9.05 µM | 23.4 µM | 2.57 µM | 7.87 µM | 0.392 µM | 10.7 µM | 4.58 µM | 15.9 µM | 19 µM | 37.8 µM | 15.8 µM | 29.3 µM | 3.65 µM | 13 µM | 2.25 µM | 6.82 µM | 10.1 µM | > 94.4 µM
6 | COc1ccc2nc3cc([N+](=O)[O-])ccc3c(NNc3ccccc3)c2c1 | 14.9 µM | 35.3 µM and > 100 µM | 18.9 µM | 71.1 µM and > 74.9 µM | 10.1 µM | 35.7 µM and > 100 µM | – | 28.2 µM and 28.6 µM | 11.6 µM | 36.1 µM and > 100 µM | – | 37.8 µM and > 100 µM | – | 13.2 µM | 14.5 µM | > 100 µM | 4.8 µM | 46.7 µM and > 73.3 µM | 12.8 µM | 55.1 µM and > 100 µM
7 | O=c1c2ccccc2nc(-c2ccccc2Cl)n1-c1nnc(C(F)(F)F)s1 | 4.01 µM | 39 µM | 3.01 µM | > 100 µM | 3.76 µM | > 100 µM | 2.7 µM | 10.1 µM | 3.15 µM | > 100 µM | 3.26 µM | > 100 µM | 1.77 µM | 5.07 µM | 3.37 µM | 14.2 µM | 2.26 µM | 8.13 µM | 3.13 µM | > 100 µM
8 | CN1CCN(c2ccc(NC(=O)c3cncnc3Nc3ccc(OCc4cccc(F)c4)c(Cl)c3)cc2)CC1 | 10 µM | > 50 µM | 1.13 µM | 2.75 µM | 3.63 µM | > 50 µM | 0.966 µM | 2.12 µM | 4 µM | > 50 µM | 1.51 µM | 5.05 µM | 1.55 µM | 24.7 µM | 0.849 µM | 1.61 µM | 1.26 µM | 3.32 µM | 5.27 µM | > 50 µM
9 | O=C(/C=C/C(Cl)(Cl)Cl)Nc1ccc(Cl)cc1 | – | 34.6 µM | – | 25.8 µM | – | 7.84 µM | – | 17.6 µM | – | 4.02 µM | – | 8.98 µM | – | 28.8 µM | – | 2.2 µM | – | 3.85 µM | – | 14 µM
10 | CCOC(=O)/C(C#N)=C1\SS/C(=C(/C#N)C(=O)OCC)S1 | > 100 µM | > 100 µM | 19.9 µM | 43.3 µM | 17.9 µM | 48.2 µM | 14.2 µM | 33.5 µM | 15.1 µM | 29.8 µM | 40 µM | > 100 µM | 63.9 µM | > 100 µM | 13.9 µM | 57.4 µM | 19.9 µM | 73.5 µM | 25.8 µM | 65.3 µM

From PubChem BioAssay (NCI)
